Measured values reported in US10670609B2, “Ytterbium as a surrogate cation to measure calcium flux” (Government of the United States, as represented by the …, priority 2017, dated 2020).
Like-named read-outs stand apart in the source and are kept apart here.

System: Human retinal pigmented epithelium cells (RPE)
Assay: NO bioassay: DAF-FM DA fluorescence as indicator of NO in RPE cells
Type: cell-based
[1] = RPE cells in PBS supplemented with Ca2+ and Mg2+
[2] = RPE cells without calcium (calcium-free PBS)
[3] = Table 3, DAF-FM DA NO fluorescence change vs control, WT RPE cells in PBS with 5 mM Ca2+ + Mg2+ + 8 mM pyruvate, agent 300 ppm unless stated

| SMILES | NO level (DAF-FM DA fluorescence) relative to control, in words | NO level (DAF-FM DA fluorescence) relative to control, in words [1] | NO level (DAF-FM DA fluorescence) relative to control, in words [2] | [(E − C)/C] × 100 (N = 3, A.U. %) [3] | other results |
| --- | --- | --- | --- | --- | --- |
| CC(=O)OCOC(=O)CN(CC(=O)OCOC(C)=O)c1ccccc1OCCOc1ccccc1N(CC(=O)OCOC(C)=O)CC(=O)OCOC(C)=O [BAPTA, 1,2-Bis(2-amino-phenoxy)ethane-N,N,N′,N′-tetraacetic acid tetrakis (acetoxymethyl ester)] | lower | – | – | – | [(E − C)/C] × 100 (N = 6, A.U. %): 11% |
| [Ca+2].[Cl-].[Cl-] [Ca^2+, calcium chloride] | slight decrease in NO | – | – | – | – |
| O=NO [Nitrite, sodium nitrite] | increased relative to control | – | – | – | [(E − C)/C] × 100 (N = 3, A.U. %): 2% |
| [Fe+3] [Fe^3+] | – | dropped by varying degrees | could not be restored | −93% | – |
| O=C1c2c(O)cccc2Cc2cccc(O)c21 [Dithranol] | – | – | – | −69% | – |
| [Pr+3] [Pr^3+] | – | dropped by varying degrees | could not be restored | −91% | decrease of NO (low DAF-FM DA fluorescence), modal (addition of agent to RPE cells, Table 3): 91% |
| [Ce+3] [Ce^3+] | – | dropped by varying degrees | could not be restored | −96% | – |
